This passage reports EC50 results from US9980945B2, “Benzoisoxazole-substituted compounds as MGLUR4 allosteric potentiators, compositions, and methods of treating neurological dysfunction” (Vanderbilt University, priority 2015, dated 2018).

Bounds are passed on as bounds.

The target of this test is mGluR4 (UniProt Q14833). Description: mGluR4 potentiation assay (EC50 for potentiation at EC20 agonist; fluorometric plate reader, Ca2+ or thallium dye). It is filed as cell-based. As to conditions: potentiation of mGluR4; species of receptor not given. How it is done:
The disclosed compounds and compositions can be evaluated for their ability to act as a potentiator of metabotropic glutamate receptor activity, in particular mGluR4 activity, by any suitable known methodology known in the art. For example, Chinese Hamster Ovary (CHO) cells transacted with human mGluR4 or HEK cells co-transfected with rat mGluR4 and the G-protein regulated Inwardly Rectifying Potassium channel (GIRK) were plated in clear bottom assay plates for assay in a Hamamatsu FDSS Fluorometric Plate Reader. The cells were loaded with either a Ca2+-sensitive fluorescent dye or the thallium responsive dye and the plates were washed and placed into a suitable kinetic plate reader. For human mGluR4 assays, a fluorescence baseline was established for 3-5 seconds, the disclosed compounds were then added to the cells, and the response in cells was measured. Approximately two and a half minutes later, a concentration of mGluR4 orthosteric agonist (e.g. glutamate or L-AP4) eliciting approximately 20% (EC20) of the maximal agonist response was added to the cells, and the response was measured. Two minutes later, a concentration of mGluR4 agonist (e.g. glutamate or L-AP4) eliciting 80% (EC80) of the maximal agonist response was added to the cells, and the response was measured. For rat mGluR4/GIRK experiments, a baseline was established for approximately five seconds, disclosed compounds were added, and either an EC20 or EC80 concentration of agonist was added approximately two and one half minutes later. Potentiation of the agonist response of mGluR4 by the disclosed compounds was observed as an increase in response to the EC20 concentration of agonist in the presence of compound compared to the response to agonist in the absence of compound. Similarly, antagonism of the agonist response of mGluR4 by the disclosed compounds was observed as a decrease in response to the EC80 concentration of agonist in the presence of compound compared to the response to agonist in the absence of compound.
The above described assay operated in two modes. In the first mode, a range of concentrations of the disclosed compounds are added to cells, followed by a single fixed concentration of agonist. If the compound acts as a potentiator, an EC50 so value for potentiation and a maximum extent of potentiation by the compound at this concentration of agonist is determined by non-linear curve fitting. If the compound acts as a noncompetitive antagonist, an IC50 value is determined by non-linear curve fitting. In the second mode, several fixed concentrations of the disclosed compounds are added to various wells on a plate, followed by a range in concentrations of agonist for each concentration of disclosed compound. The EC50 values for the agonist at each concentration of compound are determined by non-linear curve fitting. A decrease in the EC50 value of the agonist with increasing concentrations of the sample compound (a leftward shift of the agonist concentration-response curve) is an indication of the degree of mGluR4 potentiation at a given concentration of the sample compound. A decrease in the maximal response of the agonist with increasing concentrations of the sample compounds, with or without a rightward shift in agonist potency, is an indication of the degree of noncompetitive antagonism at mGluR4. The second mode also indicates whether the sample compounds also affect the maximum response to mGluR4 to agonists.
For `c1cnc2c(Nc3ccc4c(C5CCC5)noc4c3)n[nH]c2n1` [Example 4, 3-cyclobutyl-N-(1H-pyrazolo[3,4-b]pyrazin-3-yl)benzo[d]isoxazol-6-amine], the EC50 was found to be 683 nM. On to `CC(C)(C)Cc1noc2cc(Nc3n[nH]c4ncc(F)cc34)cc(F)c12` [Example 150, 3-(2,2-dimethylpropyl)-4-fluoro-N-(5-fluoro-1H-pyrazolo[3,4-b]pyridin-3-yl)-1,2-benzoxazol-6-amine], for which the EC50 is greater than 10000 nM.

Consider `CC(C)(C)Cc1noc2cc(Nc3n[nH]c4cc(F)cnc34)cc(F)c12` [Example 151, 3-(2,2-dimethylpropyl)-4-fluoro-N-(6-fluoro-1H-pyrazolo[4,3-b]pyridin-3-yl)-1,2-benzoxazol-6-amine], for which the EC50 was greater than 10000 nM. `C[C@@H](NCc1noc2cc(Nc3n[nH]c4cccnc34)ccc12)C(C)(C)C` [Example 79, N-(1H-pyrazolo[4,3-b]pyridin-3-yl)-3-[[[(1R)-1,2,2-trimethylpropyl]amino]methyl]-1,2-benzoxazol-6-amine]: the EC50 amounted to 622 nM. With `CC(c1ccc2c(cnn2C)c1)c1noc2cc(Nc3n[nH]c4cccnc34)ccc12` (centres unmarked) [Example 31, 3-(1-(1-methyl-1H-indazol-5-yl)ethyl)-N-(1H-pyrazolo[4,3-b]pyridin-3-yl)benzo[d]isoxazol-6-amine], the EC50 amounted to 645 nM. For the compound `CC(c1ccccn1)N(C)C(=O)Cc1noc2cc(Nc3n[nH]c4cccnc34)ccc12` (centres unmarked) [Example 165, N-methyl-2-[6-(1H-pyrazolo[4,3-b]pyridin-3-ylamino)-1,2-benzoxazol-3-yl]-N-[1-(2-pyridyl)ethyl]acetamide], the EC50 worked out at 2300 nM.

On to `c1cnc2c(Nc3ccc4c(CN5CCOCC5)noc4c3)n[nH]c2c1` [Example 133, 3-(morpholinomethyl)-N-(1H-pyrazolo[4,3-b]pyridin-3-yl)-1,2-benzoxazol-6-amine; 2,2,2-trifluoroacetic acid], for which the EC50 turned out to be 5770 nM.

Turning to `Cc1noc2c(F)cc(Nc3n[nH]c4cccnc34)cc12` [Example 105, 7-fluoro-3-methyl-N-(1H-pyrazolo[4,3-b]pyridin-3-yl)-1,2-benzoxazol-5-amine], the EC50 is 77.1 nM. With `CC(C)(C)Cc1noc2cc(Nc3n[nH]c4cccnc34)ccc12` [Example 11, 3-neopentyl-N-(1H-pyrazolo[4,3-b]pyridin-3-yl)benzo[d]isoxazol-6-amine], the EC50 came out at 521 nM. Turning to `CC(C)(C)Cc1noc2cc(Nc3n[nH]c4ncccc34)cc(F)c12` [Example 148, 3-(2,2-dimethylpropyl)-4-fluoro-N-(1H-pyrazolo[3,4-b]pyridin-3-yl)-1,2-benzoxazol-6-amine], the EC50 was greater than 30000 nM. For the compound `CC(C)Cc1noc2cc(Nc3n[nH]c4ncccc34)ccc12` [Example 9, 3-isobutyl-N-(1H-pyrazolo[3,4-b]pyridin-3-yl)benzo[d]isoxazol-6-amine], the EC50 came out at 4800 nM. For the compound `CC(C)(C)Cc1noc2cc(Nc3n[nH]c4nccnc34)ccc12` [Example 14, 3-neopentyl-N-(1H-pyrazolo[3,4-b]pyrazin-3-yl)benzo[d]isoxazol-6-amine], the EC50 was 617 nM.

Regarding `CCc1noc2cc(Nc3n[nH]c4ncccc34)ccc12` [Example 15, 3-ethyl-N-(1H-pyrazolo[3,4-b]pyridin-3-yl)benzo[d]isoxazol-6-amine], the EC50 was found to be 2100 nM. `O=C(NC(c1noc2cc(Nc3n[nH]c4cccnc34)ccc12)C(F)(F)F)c1nccs1` (centres unmarked) [Example 153, N-[2,2,2-trifluoro-1-[6-(1H-pyrazolo[4,3-b]pyridin-3-ylamino)-1,2-benzoxazol-3-yl]ethyl]thiazole-carboxamide]: the EC50 came out at 1390 nM. Consider `Cc1noc2c(F)cc(Nc3n[nH]c4ncccc34)cc12` [Example 107, 7-fluoro-3-methyl-N-(1H-pyrazolo[3,4-b]pyridin-3-yl)-1,2-benzoxazol-5-amine], for which the EC50 was determined as 53.1 nM. The value for `c1cnc2[nH]nc(Nc3ccc4c(C5CCCC5)noc4c3)c2c1` [Example 5, 3-cyclopentyl-N-(1H-pyrazolo[3,4-b]pyridin-3-yl)benzo[d]isoxazol-6-amine] was 2400 nM; that for `O=C(c1noc2cc(Nc3n[nH]c4cccnc34)ccc12)N1CCC(F)(F)C1` [Example 30, (6-((1H-pyrazolo[4,3-b]pyridin-3-yl)amino)benzo[d]isoxazol-3-yl)(3,3-difluoropyrrolidin-1-yl)methanone] was greater than 10000 nM; that for `CCCC(C)c1noc2cc(Nc3n[nH]c4nccnc34)ccc12` (centres unmarked) [Example 98, 3-(1-methylbutyl)-N-(1H-pyrazolo[3,4-b]pyrazin-3-yl)-1,2-benzoxazol-6-amine] was 172 nM. The value for `CCCCC(F)(F)c1noc2cc(Nc3n[nH]c4ncccc34)ccc12` [Example 138, 3-(1,1-difluoropentyl)-N-(1H-pyrazolo[3,4-b]pyridin-3-yl)-1,2-benzoxazol-6-amine] was greater than 10000 nM; that for `O=C(NC1CC(F)(F)C1)c1noc2cc(Nc3n[nH]c4cccnc34)ccc12` [Example 29, 6-((1H-pyrazolo[4,3-b]pyridin-3-yl)amino)-N-(3,3-difluorocyclobutyl)benzo[d]isoxazole-3-carboxamide] was 249 nM; that for `Fc1cncc(OCc2noc3cc(Nc4n[nH]c5cccnc45)ccc23)c1` [Example 176, 3-[(5-fluoro-3-pyridyl)oxymethyl]-N-(1H-pyrazolo[4,3-b]pyridin-3-yl)-1,2-benzoxazol-6-amine] was 767 nM.

Turning to `CCc1noc2cc(Nc3n[nH]c4nccnc34)ccc12` [Example 19, 3-ethyl-N-(1H-pyrazolo[3,4-b]pyrazin-3-yl)benzo[d]isoxazol-6-amine], the EC50 is 1310 nM. Turning to `CC(C)(C)CNCc1noc2cc(Nc3n[nH]c4cccnc34)ccc12` [Example 77, 3-[(2,2-dimethylpropylamino)methyl]-N-(1H-pyrazolo[4,3-b]pyridin-3-yl)-1,2-benzoxazol-6-amine], the EC50 is 539 nM. The value for `O=C(Cc1noc2cc(Nc3n[nH]c4cccnc34)ccc12)N1CCCC1c1ccccn1` (centres unmarked) [Example 162] was greater than 10000 nM; that for `CCCC(C)c1noc2cc(Nc3n[nH]c4ncc(F)cc34)ccc12` (centres unmarked) [Example 96, N-(5-fluoro-1H-pyrazolo[3,4-b]pyridin-3-yl)-3-(1-methylbutyl)-1,2-benzoxazol-6-amine] was 418 nM. For `CC(c1ccc(=O)[nH]c1)c1noc2cc(Nc3n[nH]c4cccnc34)ccc12` (centres unmarked) [Example 139, 5-[1-[6-(1H-pyrazolo[4,3-b]pyridin-3-ylamino)-1,2-benzoxazol-3-yl]ethyl]-1H-pyridin-2-one], the EC50 was greater than 10000 nM. Take `c1cnc2c(Nc3ccc4c(OC5CCOCC5)noc4c3)n[nH]c2c1` [Example 26, N-(1H-pyrazolo[4,3-b]pyridin-3-yl)-3-((tetrahydro-2H-pyran-4-yl)oxy)benzo[d]isoxazole-6-amine]: the EC50 is 1200 nM.

As for `CC(NCC(C)(C)C)c1noc2cc(Nc3n[nH]c4cccnc34)ccc12` (centres unmarked) [Example 137, 3-[1-(2,2-dimethylpropylamino)ethyl]-N-(1H-pyrazolo[4,3-b]pyridin-3-yl)-1,2-benzoxazol-6-amine], the EC50 was determined as 822 nM.

Consider `FC(F)(F)CCc1noc2cc(Nc3n[nH]c4cccnc34)ccc12` [Example 109, N-(1H-pyrazolo[4,3-b]pyridin-3-yl)-3-(3,3,3-trifluoropropyl)-1,2-benzoxazol-6-amine], for which the EC50 is 416 nM. For `CC(C)(C)Cc1noc2cc(Nc3n[nH]c4nccnc34)cc(F)c12` [Example 149, 3-(2,2-dimethylpropyl)-4-fluoro-N-(1H-pyrazolo[3,4-b]pyrazin-3-yl)-1,2-benzoxazol-6-amine], the EC50 is greater than 10000 nM. On to `O=C(NC1CC(F)C1)c1noc2cc(Nc3n[nH]c4cccnc34)ccc12` (centres unmarked) [Example 54, N-(3-fluorocyclobutyl)-6-(1H-pyrazolo[4,3-b]pyridin-3-ylamino)-1,2-benzoxazol-3-carboxamide], for which the EC50 is 764 nM.

Regarding `CC(C)Cc1noc2cc(Nc3n[nH]c4ccccc34)ccc12` [Example 10, N-(1H-indazol-3-yl)-3-isobutylbenzo[d]isoxazol-6-amine], the EC50 was greater than 10000 nM.

For orientation: EC50 means the concentration at which the effect is half-maximal.
